Measured values as given in a melting point compilation (Tetko et al.; mined from patent text by program, amines drawn as free bases though some values may be those of a salt).

**Q.** For `CSc1ccc(-c2csc3ccc(-c4nnc(C)o4)cc23)cc1`, which melting point is on record?
**A.** The melting point was 198 to 199 °C.

**Q.** For `CCn1c(=O)n(N(Cc2ccccc2)Cc2ccccc2)c(=O)c2cc(F)c(F)cc21`, which melting point is on record?
**A.** Its melting point is 133 to 135 °C.

**Q.** Which melting point does the source give for `CCOC(=O)/C=C/c1cc(OCOC)nn1Cc1ccc(Cl)cc1Cl` here?
**A.** The melting point was 98 to 99 °C.

**Q.** With `CCOc1cc(CO)ccc1OCCBr` as the compound, how does the melting point read?
**A.** The melting point was 51 to 53 °C.

**Q.** With `CCOC(=O)c1[nH]cc2c1NC1=C(C(=O)CCC1)C2c1ccc(Sc2nc3cccnc3[nH]2)o1` (stereo not drawn) as the compound, how does the melting point read?
**A.** The melting point was 190 to 202 °C.

**Q.** With `N#CC=C1CCN(c2ccc(N3CC(CNC(=O)C4CCCN4)OC3=O)cc2F)CC1` (stereo not drawn) as the compound, how does the melting point read?
**A.** The melting point was 155 °C.

**Q.** With `COCCc1nc2c(N)nc3ccccc3c2n1CCOCCN(C)C(=O)N1CCOCC1` as the compound, how does the melting point read?
**A.** Its melting point is 122 °C.

**Q.** With `COc1cc(C)c(C=CC(C)=CC=CC(C)=CC(=O)n2ccnc2)c(C)c1C` as the compound, how does the melting point read?
**A.** The melting point was 184 to 185 °C.

**Q.** For `O=C1c2cc(O)ccc2OCC1Cc1ccncc1` (stereo not drawn), which melting point is on record?
**A.** Its melting point is 188 to 190 °C.

**Q.** For `Oc1cccc2nc(Cc3ccccc3)[nH]c12`, which melting point is on record?
**A.** Its melting point is 172 to 174 °C.

**Q.** With `COc1cc2c(cc1Br)-c1c(-c3cccs3)c3c(n1CC2)C(=O)N(C(C)C)CCN(C(=O)C(C)C)C3` as the compound, how does the melting point read?
**A.** Its melting point is 248 to 249 °C.

**Q.** Which melting point does the source give for `Cc1c(C)n(Cc2ccccc2)c(=O)n(CCCCl)c1=O` here?
**A.** The melting point was 72 to 74 °C.

**Q.** For `CC(=O)N1CCN(c2cc3nc(C(C)(C)C)sc3cc2N=C=S)CC1`, which melting point is on record?
**A.** The melting point was 100 to 102 °C.

**Q.** For `COC(=O)CCCc1cc2cc(Cl)ccc2n1S(=O)(=O)c1ccc2nc(NC(C)=O)sc2c1`, which melting point is on record?
**A.** The melting point was 120 °C.

**Q.** With `Cc1cccc(-n2c(-c3sc(NC(=O)c4ccccc4)nc3-c3ccccc3)nc3ccccc3c2=O)c1` as the compound, how does the melting point read?
**A.** Its melting point is greater than 275 °C.

**Q.** For `COc1ccc2cc(C(=O)C(C)OS(=O)(=O)c3ccc(C)cc3)ccc2c1` (stereo not drawn), which melting point is on record?
**A.** Its melting point is 85 to 87 °C.

**Q.** With `Cc1ccc(-c2cn3cc(-c4cccc(CO)c4)ccc3n2)cc1` as the compound, how does the melting point read?
**A.** Its melting point is 171 to 173 °C.

**Q.** With `CC(=O)CCN(CCN)c1nc2cc(Cl)ccc2o1` as the compound, how does the melting point read?
**A.** The melting point was 126 °C.

**Q.** With `Cn1c(C(F)F)nn(-c2cc(O)c(Cl)cc2F)c1=O` as the compound, how does the melting point read?
**A.** Its melting point is 153 to 155 °C.

**Q.** Which melting point does the source give for `CN1C(C)(C)CC(OC(=O)N=NC(=O)OC2CC(C)(C)N(C)C(C)(C)C2)CC1(C)C` here?
**A.** The melting point was 135 to 137 °C.

**Q.** With `COC(=O)[C@@H](NC(=O)OCc1ccccc1)[C@H](O)c1ccccc1` as the compound, how does the melting point read?
**A.** Its melting point is 107 to 108 °C.

**Q.** With `CCCn1nc2c(N)nc3ccccc3c2c1NCCC1CCN(C(C)=O)CC1` as the compound, how does the melting point read?
**A.** Its melting point is 203 to 206 °C.

**Q.** Which melting point does the source give for `O=C(Nc1cccc(F)c1)C12CC3CC(CC(C3)C1)C2` here?
**A.** The melting point was 174 to 177 °C.

**Q.** With `COC(=O)C[C@H](NC(c1ccccc1)(c1ccccc1)c1ccccc1)C(=O)C(=[N+]=[N-])C(=O)N(C)OC` as the compound, how does the melting point read?
**A.** Its melting point is 130 to 131 °C.

**Q.** With `CCCCc1ccc(OC)c(-c2csc(NC(=O)c3ccc(C(=O)N4CCC(N5CCC[C@H]5CO)CC4)cc3)n2)c1` as the compound, how does the melting point read?
**A.** The melting point was 199 °C.

**Q.** For `CC(c1ccc(-c2ccccc2F)cc1)S(=O)(=O)CC(=O)O` (stereo not drawn), which melting point is on record?
**A.** Its melting point is 144 to 146 °C.

**Q.** With `Cc1ccc(S(=O)(=O)N(C)NC(=O)c2c(F)cccc2Cl)cc1` as the compound, how does the melting point read?
**A.** Its melting point is 135 to 136 °C.

**Q.** With `CC(C)(C#N)c1ccc(C(=O)CCCCl)cc1` as the compound, how does the melting point read?
**A.** The melting point was 79 to 80 °C.

**Q.** For `COc1ccc(C2=C(C=O)c3ccc(OC)cc3CC2)cc1`, which melting point is on record?
**A.** Its melting point is 142 °C.

**Q.** For `CN1C(=O)C(c2c[nH]c3ccc(F)cc23)=C(c2c[nH]c3ccc(F)cc23)C1=O`, which melting point is on record?
**A.** Its melting point is greater than 290 °C.

**Q.** For `Cn1c2c(c3ccccc31)CCOC2(C)C`, which melting point is on record?
**A.** Its melting point is 96 to 97 °C.

**Q.** For `c1ccc(OCc2ccc(OCc3ccc4ccccc4n3)cc2)cc1`, which melting point is on record?
**A.** Its melting point is 100 to 111 °C.

**Q.** For `CC(=O)Oc1ccc(C2COc3cc(OC(C)=O)c(OC(C)=O)cc3C2)cc1` (stereo not drawn), which melting point is on record?
**A.** The melting point was 145 to 147 °C.

**Q.** For `COC(=O)c1cc(N)c(Oc2ccccc2)c(N)c1`, which melting point is on record?
**A.** The melting point was 140 to 142 °C.

**Q.** Which melting point does the source give for `O=C1c2ccccc2CN1C1CCN(c2ccc(C(OCCCc3ccccc3)c3ccccc3)cc2)CC1` (stereo not drawn) here?
**A.** Its melting point is 117 to 120 °C.

**Q.** For `CNc1nc(Cl)cc(NS(=O)(=O)c2ccc(Cl)cc2)n1`, which melting point is on record?
**A.** The melting point was 196 to 198 °C.

**Q.** Which melting point does the source give for `COCCOCCOCCOc1cc(OC)c(-c2cccs2)cc1/C=C/C(=O)c1ccc(C(=O)O)cc1` here?
**A.** The melting point was 137 to 138 °C.

**Q.** Which melting point does the source give for `CC1(C)C(=O)N(c2ccc(C#N)c(C(F)(F)F)c2)C(=O)N1CCCO` here?
**A.** Its melting point is 131 to 132 °C.

**Q.** With `CCOC[C@]1(OC)CC[C@H]2[C@@H]3CCC4=CC(=O)CCC4=C3[C@@H](c3ccc(C(C)=O)cc3)C[C@@]21C` as the compound, how does the melting point read?
**A.** The melting point was 134 to 137 °C.

**Q.** For `O=C(Nc1cccc(CO)c1)NC1N=C(c2ccccc2F)c2ccccc2N(CC(=O)N2CC3CCC(CC3)C2)C1=O` (racemic), which melting point is on record?
**A.** The melting point was 143 to 161 °C.

**Q.** For `CCS(=O)(=O)Nc1cc(-c2ncnc(NOC)c2Cl)c(F)cc1C#N`, which melting point is on record?
**A.** The melting point was 188 to 189 °C.

**Q.** For `CCCn1c(-c2ccccc2)nc2cc(C(=O)OC)ccc21`, which melting point is on record?
**A.** The melting point was 79.8 °C.

**Q.** Which melting point does the source give for `O=c1[nH]ncc2cc(/C=C\c3ccc(O)cc3)ccc12` here?
**A.** The melting point was 210 °C.

**Q.** Which melting point does the source give for `COc1ccc(-c2nc(Cn3cnnc3)nc3cc(OC)c(OC)cc23)cc1` here?
**A.** Its melting point is 212 to 213 °C.

**Q.** For `CCc1ccc2c(c1)C=Cc1cc(CC)ccc1C2c1cn(Cc2nc(C(=O)O)cs2)c(=O)[nH]c1=S`, which melting point is on record?
**A.** Its melting point is 162 to 165 °C.

**Q.** For `CN(C)C1CCC(Nc2ncc3ncnc(Nc4ccc(F)c(Cl)c4)c3n2)CC1` (stereo not drawn), which melting point is on record?
**A.** The melting point was 178 to 180 °C.

**Q.** Which melting point does the source give for `O=S(=O)(Nc1cccc(COc2cccc3cccnc23)c1)c1ccc(F)cc1` here?
**A.** The melting point was 206 to 207 °C.

**Q.** With `Cc1cc(N2CCC=C(C(N)=O)C2)c2cccc(-c3ccc(Cl)cc3Cl)c2n1` as the compound, how does the melting point read?
**A.** The melting point was 230 to 232 °C.

**Q.** With `c1cncc(CCc2ccc(C3OCCO3)cc2)c1` as the compound, how does the melting point read?
**A.** Its melting point is 46 to 47 °C.

**Q.** For `CNN1c2c(cc(Oc3ccc(F)cc3F)c(=O)n2NC)C=NC1SCc1ccccc1` (stereo not drawn), which melting point is on record?
**A.** Its melting point is 80.5 to 89.9 °C.

**Q.** For `Clc1ccc2c(c1)N=C(N1CCCN(C3CC3)CC1)c1ccccc1N2`, which melting point is on record?
**A.** The melting point was 141 to 143 °C.

**Q.** For `O=C1NCCC[C@@H]1NS(=O)(=O)c1ccccc1F`, which melting point is on record?
**A.** The melting point was 180 to 183 °C.

**Q.** Which melting point does the source give for `CC(C)(C)c1cc(CCc2cc(C=O)cc(CCc3cc(C(C)(C)C)cc(C(C)(C)C)c3)c2)cc(C(C)(C)C)c1` here?
**A.** The melting point was 74 to 75 °C.

**Q.** With `O=C(O)C1CC=C(c2c(-c3ccccc3)[nH]c3ccccc23)CC1` (stereo not drawn) as the compound, how does the melting point read?
**A.** The melting point was 178 to 179 °C.

**Q.** Which melting point does the source give for `CCS(=O)CCn1nc(-c2cccc(Cl)c2Cl)c(=O)c2cccc(OC)c21` (stereo not drawn) here?
**A.** Its melting point is 128 to 130 °C.

**Q.** With `CCOC(=O)c1nc(-c2ccncc2)[nH]c1-c1ccc(C)cc1` as the compound, how does the melting point read?
**A.** Its melting point is 182 to 185 °C.

**Q.** With `COC(=O)c1cc(C)cc2c1OCc1ccccc1C2C(=O)Nc1c(C(C)C)cccc1C(C)C` (stereo not drawn) as the compound, how does the melting point read?
**A.** The melting point was 136 to 138 °C.

**Q.** With `CCCc1c(OCCCCCOc2ccc(-c3cc4ccccc4c(=O)o3)cc2CCC(=O)OCC)ccc2c1OCCC2=O` as the compound, how does the melting point read?
**A.** Its melting point is 144 °C.

**Q.** For `CCOc1cc(-c2ccc3c(c2)C=C(C(=O)Nc2ccc(CN(C)C4CCOCC4)cc2)CCS3(=O)=O)ccc1C#N`, which melting point is on record?
**A.** Its melting point is 244 to 247 °C.

**Q.** With `C[C@@H]1CN(c2c(F)c(N)c3c(=O)c(C(=O)O)cn(C4CC4)c3c2F)C[C@H]1N` (relative stereo) as the compound, how does the melting point read?
**A.** Its melting point is 234 to 236 °C.

**Q.** Which melting point does the source give for `O=S(=O)(Nc1nc(Cl)cnc1OCc1ccco1)c1ccc(Cl)s1` here?
**A.** Its melting point is 130 to 133 °C.

**Q.** For `COC(=O)c1ccc(O)c(C=NO)c1`, which melting point is on record?
**A.** Its melting point is 155 °C.

**Q.** Which melting point does the source give for `CC1(C)CCC(C)(C)c2cc(C#Cc3ccc(CO)cc3)ccc21` here?
**A.** Its melting point is 115 to 117 °C.

**Q.** With `OCc1ccc(-c2cccnc2)s1` as the compound, how does the melting point read?
**A.** The melting point was 89 to 90 °C.

**Q.** Which melting point does the source give for `COc1ccc2c(c1)N(c1ccc(F)cc1)C(=O)C2NC(=O)c1cc2ccccc2cn1` (stereo not drawn) here?
**A.** The melting point was 219 to 220 °C.

**Q.** With `CCOC(=O)C(=O)N(CCO)N=Cc1ccccc1` as the compound, how does the melting point read?
**A.** The melting point was 96 to 98 °C.

**Q.** For `c1cn(-c2cc(-n3cnc4cc(-c5ccoc5)ccc43)ncn2)cn1`, which melting point is on record?
**A.** Its melting point is 294 to 296 °C.

**Q.** For `CCNCCCC(O)c1ccc(NS(C)(=O)=O)cc1` (stereo not drawn), which melting point is on record?
**A.** Its melting point is 174 to 176 °C.
